Data reported in paper PMC5822683 (Inflammation, 2014).
Where a SMILES comes first, the peptide text is derived from it.

Tests used:
[1] = tested on: animal models of acute inflammation / severe sepsis; conditions: cited from earlier work
[2] = tested on: patients with high-risk cardiovascular disease; conditions: selected groups of patients with high-risk cardiovascular disease; ref [55], [56]; cited from earlier work
[3] = tested on: human monocyte-derived macrophages; conditions: ref [29]; cited from earlier work
[4] = tested on: lipopolysaccharide-binding protein (LBP); conditions: ref [21]; cited from earlier work
[5] = tested on: LPS-stimulated whole human blood; conditions: 40 μg/ml, LPS 1 μg/ml, 3 h at 37 °C
[6] = tested on: leukocytes; conditions: ref [24]; cited from earlier work
[7] = compared with human apoA-I; ref [37]; cited from earlier work
[8] = tested on: primary human monocytes; conditions: ref [28]; cited from earlier work
[9] = ref [21], [48]; cited from earlier work
[10] = tested on: IL-8-stimulated human neutrophils
[11] = tested on: rodents; conditions: compared with L-4F doses studied here (Fig. S4)
[12] = tested on: paraoxonase 1; conditions: ref [20], [41]; cited from earlier work
[13] = statement in the discussion, no reference given; cited from earlier work
[14] = tested on: LPS-stimulated isolated human neutrophils; conditions: 50 % donor plasma, 40 μg/ml
[15] = tested on: LPS-stimulated isolated human leukocytes; conditions: 40 μg/ml, LPS 1 μg/ml, n=3
[16] = tested on: LPS-stimulated isolated human neutrophils
[17] = tested on: human neutrophils stimulated by septic patient serum; conditions: ref [24], cited from earlier work
[18] = tested on: TNF-α-stimulated whole human blood; conditions: 40 μg/ml, human TNF-α 10 ng/ml, 6 h at 37 °C, n=4 (Fig. 2)

Compound: Ac-DWFKAFYDKVAEKFKEAF-NH2 [4F]
- anti-inflammatory properties ([1]; ref [19]–[21]): exerts strong anti-inflammatory properties
- safety profile in patients [2]: acceptable safety profile
- disruption of rafts and responsiveness of macrophages to LPS [3]: attenuating the responsiveness of macrophages to LPS

Compound: CC(=O)N[C@@H](CC(=O)O)C(=O)N[C@@H](Cc1c[nH]c2ccccc12)C(=O)N[C@@H](Cc1ccccc1)C(=O)N[C@@H](CCCCN)C(=O)N[C@@H](C)C(=O)N[C@@H](Cc1ccccc1)C(=O)N[C@@H](Cc1ccc(O)cc1)C(=O)N[C@@H](CC(=O)O)C(=O)N[C@@H](CCCCN)C(=O)N[C@H](C(=O)N[C@@H](C)C(=O)N[C@@H](CCC(=O)O)C(=O)N[C@@H](CCCCN)C(=O)N[C@@H](Cc1ccccc1)C(=O)N[C@@H](CCCCN)C(=O)N[C@@H](CCC(=O)O)C(=O)N[C@@H](C)C(=O)N[C@@H](Cc1ccccc1)C(N)=O)C(C)C [L-4F] (Ac-DWFKAFYDKVAEKFKEAF-NH2)
- dose with high efficiency in animal models of severe sepsis ([1]; L-4F, ref [22]–[24]): 10 mg/kg
- effect in cecal ligation and puncture model of polymicrobial sepsis ([1]; cecal ligation and puncture, ref [22]): has protective effects
- effect in animal models of acute inflammation ([1]; ref [22]–[25]): reduces inflammatory response and improves survival
- competition with LBP for binding with LPS [4]: compete with lipopolysaccharide-binding protein (LBP) for binding with LPS
- effect on inflammatory response to LPS (TNF-α and IL-6) ([5]; ELISA, n=4 (Fig. 1)): inhibits inflammatory response to LPS in blood to an equal extent
- plasma level of TNF-α ([5]; n=4/group, *P<0.05 vs. saline-treated LPS (Fig. 1A)): reduces plasma levels of TNF-α
- plasma level of IL-6 ([5]; n=4/group, *P<0.05 vs. saline-treated LPS (Fig. 1B)): reduces plasma levels of TNF-α (A) and IL-6
- inhibition of binding of LPS to leukocytes [6]: inhibit binding of LPS to leukocytes
- binding affinity for pro-inflammatory oxidized lipids [7]: binds pro-inflammatory oxidized lipids with higher affinity than human apoA-I
- cholesterol efflux and lipid raft abundance [8]: stimulate cholesterol efflux and reduce lipid raft abundance
- interaction with LPS (co-localization of Bodipy-LPS and ^14C-L-4F in FPLC fractions) [9]: interaction of LPS and L-4F was strongly suggested
- effect on IL-8-induced increase of CD11b expression [10]: only minimal effect
- effect on IL-8-induced increase of lipid rafts abundance [10]: only minimal effect
- tolerability in rodents [11]: rodents were able to tolerate L-4F in much higher doses
- HDL-associated paraoxonase 1 activity [12]: increasing HDL-associated paraoxonase 1 activity
- water solubility [13]: high water solubility
- effect on LPS-induced TNF-α levels ([14]; LPS 1 μg/ml, 30 min, 1 h, 3 h (Fig. 5A)): inhibit this effect (P<0.05 vs. LPS, for 30 min and 1 h, Fig. 5A)
- effect on LPS-mediated MPO elevation ([14]; LPS 1 μg/ml, 30 min, 1 h, 3 h (Fig. 5B)): only inhibitory effect of L-4F reaches statistical significance (P<0.05 vs. LPS, for 30 min and 3 h, Fig. 5B)
- effect on LPS-mediated IL-6 increase ([14]; LPS 1 μg/ml, 3 h, cell media, n=3, ELISA (Fig. 6)): significantly inhibits LPS-mediated IL-6 increase (P<0.05 vs. LPS)
- comparison with apoA-I, LPS-mediated increase in IL-6 levels ([14]; LPS-stimulated neutrophils): tended to be superior in inhibiting LPS-mediated increase in IL-6 levels
- effect on LPS-mediated chemiluminescence (rate and peak) ([15]; 5 or 50 % donor plasma, lucigenin 10 μM, 3 h at 37 °C, both P<0.05 vs. LPS (Fig. 9)): inhibits the rate as well as peak of LPS-mediated chemiluminescence
- inhibition of oxidative stress, L-4F vs. apoA-I ([15]; 50 % plasma, 3 h, NS vs. apoA-I): the inhibitory effects of L-4F and apoA-I are similar
- effect of agent alone on CD11b expression and lipid raft abundance [16]: Neither L-4F alone nor apoA-I alone affects CD11b expression and lipid raft abundance
- effect on LPS-increased CD11b expression [16]: inhibits this effect (P<0.05 vs. LPS, for L-4F at all time points and for apoA-I at 30 min, Fig. 3A, B)
- effect on LPS-increased lipid raft abundance [16]: inhibits this effect (P<0.05 vs. LPS, for L-4F at 1 and 3 h and for apoA-I at 1 h, Fig. 3C, D)
- effective concentration ([17]; concentration at which effective, L-4F): 40 µg/mL
- activation of neutrophils by septic patient serum [17]: inhibits activation of human neutrophils stimulated by septic patient serum
- effect on TNF-α-mediated elevation of plasma IL-6 [18]: does not reduce plasma levels of IL-6
